Data taken from patent publication US8629173B2, “Solid forms comprising (+)-2-[1-(3-ethoxy-4-methoxyphenyl)-2-methylsulfonylethyl]-4-acetylaminoisoindoline-1,3-dione, compositions thereof, and uses thereof” (Celgene Corporation, priority 2002, dated 2014).
pIC50: −log10 of the molar value.

Tests used:
[1] = molecular target: PDE5 from human platelets (Homo sapiens, UniProt O76074); experiment: PDE5 enzyme assay; type: biochemical
[2] = molecular target: T1, PDE6 from bovine retinal rod outer segments (Bos taurus, UniProt P11541+P23439); experiment: PDE6 enzyme assay; type: biochemical
T1 construct: PDE6 from bovine retinal rod outer segments; from tissue; host or cells: bovine retinal rod outer segments
T1 sequence (P11541 2-856 limits assumed): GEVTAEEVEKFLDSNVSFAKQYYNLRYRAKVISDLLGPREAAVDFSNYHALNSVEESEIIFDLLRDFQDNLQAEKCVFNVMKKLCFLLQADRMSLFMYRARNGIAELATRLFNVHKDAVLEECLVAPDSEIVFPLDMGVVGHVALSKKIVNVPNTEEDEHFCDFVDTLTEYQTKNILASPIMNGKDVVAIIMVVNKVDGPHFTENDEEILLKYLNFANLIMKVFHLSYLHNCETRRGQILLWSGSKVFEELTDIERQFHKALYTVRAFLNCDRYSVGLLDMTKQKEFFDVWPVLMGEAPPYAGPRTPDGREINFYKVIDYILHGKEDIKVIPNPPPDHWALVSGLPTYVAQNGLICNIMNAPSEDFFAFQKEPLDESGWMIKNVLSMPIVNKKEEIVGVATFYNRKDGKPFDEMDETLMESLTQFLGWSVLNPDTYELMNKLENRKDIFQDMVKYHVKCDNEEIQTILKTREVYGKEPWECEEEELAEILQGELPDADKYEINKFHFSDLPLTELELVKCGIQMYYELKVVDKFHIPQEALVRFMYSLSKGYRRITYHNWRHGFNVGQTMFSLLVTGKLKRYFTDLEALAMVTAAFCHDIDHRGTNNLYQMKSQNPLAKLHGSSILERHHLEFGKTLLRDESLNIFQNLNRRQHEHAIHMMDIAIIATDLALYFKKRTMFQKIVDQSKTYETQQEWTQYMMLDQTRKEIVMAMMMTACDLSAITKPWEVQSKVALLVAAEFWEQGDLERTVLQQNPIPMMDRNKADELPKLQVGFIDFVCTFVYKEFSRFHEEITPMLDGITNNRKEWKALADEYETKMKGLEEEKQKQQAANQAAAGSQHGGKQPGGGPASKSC
T1 sequence (P23439 2-850 limits assumed): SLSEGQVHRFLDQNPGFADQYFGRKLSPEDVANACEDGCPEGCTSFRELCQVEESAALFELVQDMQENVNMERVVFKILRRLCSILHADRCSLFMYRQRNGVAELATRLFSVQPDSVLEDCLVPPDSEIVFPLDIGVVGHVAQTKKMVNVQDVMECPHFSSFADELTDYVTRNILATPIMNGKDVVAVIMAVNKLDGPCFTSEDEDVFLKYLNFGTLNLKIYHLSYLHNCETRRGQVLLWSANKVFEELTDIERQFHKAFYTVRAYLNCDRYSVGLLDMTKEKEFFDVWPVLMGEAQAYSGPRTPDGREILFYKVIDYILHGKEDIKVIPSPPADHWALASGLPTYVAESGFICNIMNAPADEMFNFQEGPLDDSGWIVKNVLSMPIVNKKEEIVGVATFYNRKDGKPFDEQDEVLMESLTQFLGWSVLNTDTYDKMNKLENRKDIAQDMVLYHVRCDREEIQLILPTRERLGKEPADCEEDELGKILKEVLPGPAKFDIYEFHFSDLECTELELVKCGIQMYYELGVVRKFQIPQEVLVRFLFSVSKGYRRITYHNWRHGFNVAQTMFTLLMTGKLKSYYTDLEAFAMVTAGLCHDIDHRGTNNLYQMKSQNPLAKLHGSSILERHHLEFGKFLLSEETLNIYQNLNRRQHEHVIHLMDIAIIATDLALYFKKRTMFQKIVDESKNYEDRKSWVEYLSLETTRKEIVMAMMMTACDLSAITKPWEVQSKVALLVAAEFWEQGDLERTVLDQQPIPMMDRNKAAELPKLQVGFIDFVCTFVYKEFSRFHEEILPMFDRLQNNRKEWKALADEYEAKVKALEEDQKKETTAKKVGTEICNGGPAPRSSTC

PDE4 (from U937 cells) = experiment: PDE4 (U937 cell-derived) enzyme assay; type: biochemical, human; conditions: 1 μM cAMP
human PDE2 = human PDE2 (Homo sapiens, UniProt O00408); experiment: PDE2 enzyme assay; type: biochemical
[3] = molecular target: PDE3 from human platelets (Homo sapiens, UniProt Q14432); experiment: PDE3 enzyme assay; type: biochemical
bovine PDE1 = experiment: PDE1 enzyme assay; type: biochemical

human PDE2, sequence (O00408 whole entry): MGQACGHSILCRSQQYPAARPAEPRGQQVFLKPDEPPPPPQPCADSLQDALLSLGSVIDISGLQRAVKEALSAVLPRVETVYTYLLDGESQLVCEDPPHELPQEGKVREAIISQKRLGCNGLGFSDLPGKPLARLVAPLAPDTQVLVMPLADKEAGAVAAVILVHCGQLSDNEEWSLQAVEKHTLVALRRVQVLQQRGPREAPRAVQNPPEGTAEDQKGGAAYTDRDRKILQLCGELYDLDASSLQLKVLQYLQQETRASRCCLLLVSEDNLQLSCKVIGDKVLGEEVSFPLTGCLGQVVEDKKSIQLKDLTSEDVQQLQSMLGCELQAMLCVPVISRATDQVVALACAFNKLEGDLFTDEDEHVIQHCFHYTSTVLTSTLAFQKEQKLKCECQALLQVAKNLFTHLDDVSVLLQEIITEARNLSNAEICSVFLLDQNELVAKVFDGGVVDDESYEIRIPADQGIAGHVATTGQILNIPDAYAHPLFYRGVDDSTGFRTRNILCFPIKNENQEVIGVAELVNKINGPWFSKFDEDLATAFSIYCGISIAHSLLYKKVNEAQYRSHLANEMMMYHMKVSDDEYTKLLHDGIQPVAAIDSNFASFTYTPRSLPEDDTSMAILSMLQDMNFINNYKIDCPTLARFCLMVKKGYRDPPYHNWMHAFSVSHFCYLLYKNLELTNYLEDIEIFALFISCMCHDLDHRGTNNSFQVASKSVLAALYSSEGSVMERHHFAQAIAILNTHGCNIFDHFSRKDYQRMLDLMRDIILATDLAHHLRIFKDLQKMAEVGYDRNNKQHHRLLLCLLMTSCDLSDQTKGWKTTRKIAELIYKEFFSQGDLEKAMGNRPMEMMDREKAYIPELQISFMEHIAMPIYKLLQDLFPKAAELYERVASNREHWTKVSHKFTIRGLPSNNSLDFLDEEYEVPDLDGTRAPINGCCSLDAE
PDE3 from human platelets, sequence (Q14432 whole entry): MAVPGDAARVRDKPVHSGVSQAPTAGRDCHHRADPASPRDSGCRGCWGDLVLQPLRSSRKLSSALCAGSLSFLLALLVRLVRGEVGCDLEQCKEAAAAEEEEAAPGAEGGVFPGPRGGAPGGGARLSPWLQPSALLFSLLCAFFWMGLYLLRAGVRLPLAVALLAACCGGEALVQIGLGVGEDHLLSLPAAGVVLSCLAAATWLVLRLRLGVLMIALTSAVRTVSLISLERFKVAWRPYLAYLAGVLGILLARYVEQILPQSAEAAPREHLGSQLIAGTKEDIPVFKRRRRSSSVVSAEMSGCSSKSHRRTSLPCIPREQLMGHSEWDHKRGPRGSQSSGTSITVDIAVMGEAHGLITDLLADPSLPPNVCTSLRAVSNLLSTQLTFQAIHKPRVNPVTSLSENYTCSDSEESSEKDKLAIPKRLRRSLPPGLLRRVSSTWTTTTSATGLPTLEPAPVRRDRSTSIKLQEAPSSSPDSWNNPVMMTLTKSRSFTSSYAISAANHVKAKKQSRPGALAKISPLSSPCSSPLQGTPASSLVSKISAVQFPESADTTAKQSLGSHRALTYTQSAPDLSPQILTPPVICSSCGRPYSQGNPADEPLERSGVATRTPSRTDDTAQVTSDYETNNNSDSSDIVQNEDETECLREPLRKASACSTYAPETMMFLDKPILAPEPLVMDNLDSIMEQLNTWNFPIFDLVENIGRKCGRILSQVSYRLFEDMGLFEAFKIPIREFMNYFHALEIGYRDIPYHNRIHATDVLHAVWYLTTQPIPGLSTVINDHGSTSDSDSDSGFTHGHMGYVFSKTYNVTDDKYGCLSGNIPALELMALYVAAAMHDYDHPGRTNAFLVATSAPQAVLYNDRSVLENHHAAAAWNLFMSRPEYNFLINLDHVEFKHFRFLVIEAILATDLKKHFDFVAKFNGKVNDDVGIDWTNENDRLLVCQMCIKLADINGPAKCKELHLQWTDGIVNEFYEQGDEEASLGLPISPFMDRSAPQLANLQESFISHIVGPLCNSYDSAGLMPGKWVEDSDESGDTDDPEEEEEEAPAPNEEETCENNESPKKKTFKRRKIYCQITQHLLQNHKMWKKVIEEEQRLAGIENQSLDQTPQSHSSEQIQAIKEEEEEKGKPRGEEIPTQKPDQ

PDE5 (% inhib at 10 μM) ([1]; 10 μM): −9%
PDE Specificity Ratio PDE4/PDE5 ([1]; from Table 1 data): >39000 fold
PDE6 (% inhib at 10 μM) ([2]; 10 μM): 10%
PDE Specificity Ratio PDE4/PDE6 ([2]; from Table 1 data): >250 fold
pIC50 (PDE4 (from U937 cells)): 6.21
PDE2 (% inhib at 10 μM) (human PDE2; 10 μM): 10%
PDE Specificity Ratio PDE4/PDE2 (human PDE2; from Table 1 data): >260 fold
PDE3 (% inhib at 10 μM) ([3]; 10 μM): 31%
PDE Specificity Ratio PDE4/PDE3 ([3]; from Table 1 data): >45 fold
PDE1 (% inhib at 10 μM) (bovine PDE1; 10 μM): 27%
PDE Specificity Ratio PDE4/PDE1 (bovine PDE1; from Table 1 data): >50 fold
Compound: CCOc1cc([C@H](CS(C)(=O)=O)N2C(=O)c3cccc(NC(C)=O)c3C2=O)ccc1OC [Compound B]
